Source: patent publication US20040161820A1 (priority 2001, published 2004)

Legend:
Type in all cases: cell-based
YPH252 = assay: MIC of G418 in liquid medium; details: Saccharomyces cerevisiae, strain YPH252
Description: (§1) Bacterial strains used as plasmid hosts included: Escherichia coli DH5: F'lendA1 hsdr17 (rk^−mk^−) supE44 thi-1 recA1 gyrA(Nal^r) relA1 (lacZYA-argF)U169 deoR (80dlac (lacZ)M15) (Sambrook et al., 1989). Yeast were tested in solid medium YPD and eight industrial strains, from laboratory and seven Amazonian strains were sensitive to 200 μg/ml and 500 μg/ml of G418. Afterwards, the minimum concentration of antibiotic that inhibits the growth (MIC) in liquid medium was determined (Table 1).

L106 = assay: MIC of G418 in liquid medium; details: industrial strain L106
Description: as §1

L103 = assay: MIC of G418 in liquid medium; details: wild-type Amazon strain L103
Description: as §1

PE-2 = assay: MIC of G418 in liquid medium; details: industrial strain PE-2
Description: as §1

L105 = assay: MIC of G418 in liquid medium; details: industrial strain L105
Description: as §1

S288C = assay: MIC of G418 in liquid medium; details: Saccharomyces cerevisiae, strain S288C
Description: as §1

L77 = assay: MIC of G418 in liquid medium; details: wild-type Amazon strain L77
Description: as §1

CR-01 = assay: MIC of G418 in liquid medium; details: industrial strain CR-01
Description: as §1

Fermix = assay: MIC of G418 in liquid medium; details: industrial strain Fermix
Description: as §1

BG 01 = assay: MIC of G418 in liquid medium; details: industrial strain BG 01
Description: as §1

[1] = tested on: Montrachet de la Champagne; assay: MIC of G418 in liquid medium; details: industrial strain Montrachet de la Champagne
Description: as §1

L110 = assay: MIC of G418 in liquid medium; details: wild-type Amazon strain L110
Description: as §1

L69 = assay: MIC of G418 in liquid medium; details: wild-type Amazon strain L69
Description: as §1

L101 = assay: MIC of G418 in liquid medium; details: wild-type Amazon strain L101
Description: as §1

L136 = assay: MIC of G418 in liquid medium; details: wild-type Amazon strain L136
Description: as §1

L151 = assay: MIC of G418 in liquid medium; details: wild-type Amazon strain L151
Description: as §1

SA-01 = assay: organism not typed

CN[C@@H]1[C@@H](O)[C@@H](O[C@@H]2[C@@H](O)[C@H](O[C@H]3O[C@H]([C@@H](C)O)[C@@H](O)[C@H](O)[C@H]3N)[C@@H](N)C[C@H]2N)OC[C@]1(C)O [G418, geneticin]
MIC (YPH252): ≤ 50 µg/mL
MIC (L106): 25 µg/mL
MIC (L103): 150 µg/mL
MIC (PE-2): ≤ 50 µg/mL
MIC (L105): 25 µg/mL
MIC (S288C): 100 µg/mL
MIC (L77): 25 µg/mL
MIC (CR-01): ≤ 50 µg/mL
MIC (Fermix): ≤ 50 µg/mL
MIC (BG 01): ≤ 50 µg/mL
MIC [1]: ≦50 μg/ml
MIC (L110): 150 µg/mL
MIC (L69): 100 µg/mL
MIC (L101): 100 µg/mL
MIC (L136): 25 µg/mL
MIC (L151): 12.5 µg/mL
MIC (SA-01): ≤ 50 µg/mL
